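48-hour exposure; five concentrations; linearly interpolated endpoints. Here, GI50 denotes the concentration required for 50% inhibition of growth.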 Active and inactive are the calls of the source. Cut-off read from the data, not from the text of the source: active = GI50 up to about 1.1 µM and inactive = higher.
Columns and labels:
Experiment in all cases: NCI tumour cell line growth inhibition, 48 h
[1] = test system: HT-29
[2] = test system: Malme-3M
[3] = test system: COLO 205
[4] = test system: SF-295
[5] = test system: SK-MEL-5
[6] = test system: A549
[7] = test system: HL-60
[8] = test system: M19-MEL
[9] = test system: ACHN
[10] = test system: SK-MEL-2
[11] = test system: OVCAR-5
[12] = test system: DMS-273
[13] = test system: UACC-62
[14] = test system: HCT-15
[15] = test system: SK-MEL-28
[16] = test system: M14
[17] = test system: LXFL 529
[18] = test system: HCC 2998
[19] = test system: NCI-H23
[20] = test system: OVCAR-3
[21] = test system: SF-268
[22] = test system: SNB-19
[23] = test system: SR
[24] = test system: OVCAR-4
[25] = test system: KM-20L2
[26] = test system: SNB-75
[27] = test system: 786-0
[28] = test system: RXF 393
[29] = test system: NCI-H226
[30] = test system: K562
[31] = test system: CAKI-1
[32] = test system: U-251
[33] = test system: SF-539
[34] = test system: HCT-116
[35] = test system: HOP-62
[36] = test system: UACC-257
[37] = test system: MOLT-4
[38] = test system: SW-620
[39] = test system: A498
[40] = test system: EKVX
[41] = test system: LOX IMVI
[42] = test system: CCRF-CEM
[43] = test system: SN12C
[44] = test system: OVCAR-8
[45] = test system: DMS-114
[46] = test system: UO-31
[47] = test system: NCI-H460
[48] = test system: XF498
[49] = test system: SK-OV-3
[50] = test system: DLD-1
[51] = test system: NCI-H522
[52] = test system: KM12
[53] = test system: TK-10
[54] = test system: IGROV-1
[55] = test system: RPMI-8226
[56] = test system: SNB-78
[57] = test system: HOP-92
[58] = test system: HOP-18

CC(C)(C)C1=CC(=N/N=c2\scc(-c3ccccc3)n2Cc2ccccc2)C=C(C(C)(C)C)C1=O
GI50 [1]: > 100 µM (inactive)
GI50 [2]: > 100 µM (inactive)
GI50 [3]: > 100 µM (inactive)
GI50 [4]: > 100 µM (inactive)
GI50 [5]: > 100 µM (inactive)
GI50 [6]: > 100 µM (inactive)
GI50 [7]: > 100 µM (inactive)
GI50 [8]: > 100 µM (inactive)
GI50 [9]: > 100 µM (inactive)
GI50 [10]: > 100 µM (inactive)
GI50 [11]: > 100 µM (inactive)
GI50 [12]: > 100 µM (inactive)
GI50 [13]: > 100 µM (inactive)
GI50 [14]: > 100 µM
GI50 [15]: > 100 µM (inactive)
GI50 [16]: > 100 µM (inactive)
GI50 [17]: > 100 µM (inactive)
GI50 [18]: > 100 µM (inactive)
GI50 [19]: > 100 µM (inactive)
GI50 [20]: > 100 µM (inactive)
GI50 [21]: > 100 µM (inactive)
GI50 [22]: > 100 µM (inactive)
GI50 [23]: > 100 µM (inactive)
GI50 [24]: > 100 µM (inactive)
GI50 [25]: > 100 µM (inactive)
GI50 [26]: > 100 µM (inactive)
GI50 [27]: > 100 µM (inactive)
GI50 [28]: > 100 µM (inactive)
GI50 [29]: > 100 µM (inactive)
GI50 [30]: > 100 µM (inactive)
GI50 [31]: > 100 µM (inactive)
GI50 [32]: > 100 µM (inactive)
GI50 [33]: > 100 µM (inactive)
GI50 [34]: > 100 µM (inactive)
GI50 [35]: > 100 µM (inactive)
GI50 [36]: > 100 µM (inactive)
GI50 [37]: > 100 µM (inactive)
GI50 [38]: > 100 µM (inactive)
GI50 [39]: > 100 µM (inactive)
GI50 [40]: > 100 µM (inactive)
GI50 [41]: > 100 µM (inactive)
GI50 [42]: > 100 µM (inactive)
GI50 [43]: > 100 µM (inactive)
GI50 [44]: > 100 µM (inactive)
GI50 [45]: > 100 µM (inactive)
GI50 [46]: > 100 µM (inactive)
GI50 [47]: > 100 µM (inactive)
GI50 [48]: > 100 µM (inactive)

Cc1nc(=O)n2c(C)n[nH]c2c1C(=O)O
GI50 [1]: > 100 µM (inactive)
GI50 [2]: > 100 µM (inactive)
GI50 [3]: > 100 µM (inactive)
GI50 [4]: > 100 µM (inactive)
GI50 [5]: 10 µM (inactive)
GI50 [7]: > 100 µM (inactive)
GI50 [8]: > 100 µM (inactive)
GI50 [9]: > 100 µM (inactive)
GI50 [10]: > 100 µM (inactive)
GI50 [11]: > 100 µM (inactive)
GI50 [13]: > 100 µM (inactive)
GI50 [14]: > 100 µM
GI50 [15]: > 100 µM (inactive)
GI50 [16]: > 100 µM (inactive)
GI50 [49]: > 100 µM (inactive)
GI50 [50]: > 100 µM (inactive)
GI50 [17]: > 100 µM (inactive)
GI50 [51]: > 100 µM (inactive)
GI50 [19]: > 100 µM (inactive)
GI50 [20]: > 100 µM (inactive)
GI50 [21]: > 100 µM (inactive)
GI50 [23]: > 100 µM (inactive)
GI50 [52]: > 100 µM (inactive)
GI50 [24]: > 100 µM (inactive)
GI50 [53]: > 100 µM (inactive)
GI50 [54]: > 100 µM (inactive)
GI50 [27]: > 100 µM (inactive)
GI50 [28]: 31.1 µM (inactive)
GI50 [29]: > 100 µM (inactive)
GI50 [30]: > 100 µM (inactive)
GI50 [31]: > 100 µM (inactive)
GI50 [55]: > 100 µM (inactive)
GI50 [56]: > 100 µM (inactive)
GI50 [32]: > 100 µM (inactive)
GI50 [33]: > 100 µM (inactive)
GI50 [34]: > 100 µM (inactive)
GI50 [35]: > 100 µM (inactive)
GI50 [57]: > 100 µM (inactive)
GI50 [37]: > 100 µM (inactive)
GI50 [38]: > 100 µM (inactive)
GI50 [40]: > 100 µM (inactive)
GI50 [41]: > 100 µM (inactive)
GI50 [42]: > 100 µM (inactive)
GI50 [43]: > 100 µM (inactive)
GI50 [44]: > 100 µM (inactive)
GI50 [45]: > 100 µM (inactive)
GI50 [46]: > 100 µM (inactive)
GI50 [47]: > 100 µM (inactive)
GI50 [48]: > 100 µM (inactive)

O=C(Nc1cccc(C(F)(F)F)c1)c1cc(-c2ccccc2)nc(S)n1
GI50 [1]: > 100 µM (inactive)
GI50 [2]: > 100 µM (inactive)
GI50 [3]: > 100 µM (inactive)
GI50 [4]: > 100 µM (inactive)
GI50 [7]: > 100 µM (inactive)
GI50 [8]: > 100 µM (inactive)
GI50 [10]: > 100 µM (inactive)
GI50 [11]: > 100 µM (inactive)
GI50 [12]: > 100 µM (inactive)
GI50 [14]: > 100 µM
GI50 [16]: > 100 µM (inactive)
GI50 [17]: > 100 µM (inactive)
GI50 [18]: > 100 µM (inactive)
GI50 [58]: > 100 µM (inactive)
GI50 [20]: > 100 µM (inactive)
GI50 [22]: > 100 µM (inactive)
GI50 [23]: > 100 µM (inactive)
GI50 [52]: > 100 µM (inactive)
GI50 [24]: > 100 µM (inactive)
GI50 [25]: > 100 µM (inactive)
GI50 [29]: > 100 µM (inactive)
GI50 [31]: > 100 µM (inactive)
GI50 [34]: > 100 µM (inactive)
GI50 [35]: > 100 µM (inactive)
GI50 [36]: > 100 µM (inactive)
GI50 [57]: > 100 µM (inactive)
GI50 [38]: > 100 µM (inactive)
GI50 [41]: > 100 µM (inactive)
GI50 [43]: > 100 µM (inactive)
GI50 [44]: > 100 µM (inactive)
GI50 [46]: > 100 µM (inactive)
GI50 [47]: > 100 µM (inactive)

From ChEMBL document CHEMBL1201862, “PubChem BioAssay data set” (2004)
